Experimental data published in patent US9018248B2, “Fatty acid derivatives of catechins and methods of their use” (Genesis Group Inc., priority 2010, dated 2015).
Marks after values point to notes of the source that are not given here.

What was measured:
[1] = system: Human LDL; assay: Inhibition of copper-induced LDL-cholesterol oxidation; settings: CuSO4-induced, 37° C., 22 hours
Experimental: Human LDL solution was dialyzed overnight in PBS (10 mM, 0.15M NaCl, pH 7.4) at 4° C. under nitrogen blanket prior to the test. Sample solutions were prepared by dissolving the test compounds in ethanol at concentration of 500 μM. Ten microliters of sample solutions were transferred into a set of Eppendorf tubes, and the solvent was evaporated to dryness under a nitrogen stream. To each tube 0.1 ml of PBS was added, followed by vortexing for 1 min. An aliquot (0.8 ml) of the dialyzed and diluted LDL solution (0.125 mg/ml) was added to each tube, and the contents were mixed well and incubated at 37° C. for 15 min. The reaction was initiated by adding 0.1 ml of CuSO4 (20 μM, previously incubated). A blank containing only sample without LDL or CuSO4 was prepared for each test compound. After incubation of the reaction mixture at 37° C. for 22 hours, the conjugated dienes formed as a result of oxidation were measured spectrophotometrically at 234 nm. […] All absorbances for samples were blank-corrected. Discussion

[2] = Lipophilicity, octanol-water partition coefficient by shake flask method; assay type: physicochemical; settings: 22° C., P=log Ax/(A0−Ax)
Experimental: Lipophilicity of the identified EGCG derivatives was determined as octanol-water partition coefficient (P) by a shake flask method. Briefly, a flask containing a mixture of octanol (100 ml) and deionized water (100 ml) was shaken in a shaking waterbath at room temperature (22° C.) for 24 hours. The content was then allowed to stand for 24 hours for separation into two phases. Test compounds (0.2 μmol) were dissolved in 5 ml of the upper phase (pre-saturated octanol), and the absorbance (A0) was read at 280 nm. A blank with no sample was prepared. Five milliliters of the bottom phase (pre-saturated water) were added afterwards, and the mixtures were vortexed for 1 min and allowed to stand for 24 hours for separation. Absorbance (Ax) of the upper phase in the vials was measured and octanol-water partition coefficient (P) calculated using the following equation: P=log Ax/(A0−Ax), where blank-corrected absorbance was used.

[3] = Inhibition against UV-induced liposome oxidation; settings: UV 254 nm, 45 min
Experimental: To prepare liposome MLV, 10 mg of egg yolk PC were dissolved in a small amount of chloroform in a round bottom flask and the solvent was removed using a rotary evaporator followed by nitrogen flush. The thin film on the inner surface of the flask was suspended in 10 ml of PBS (10 mM, pH7.4, 150 mM NaCl) by vortex and sonication, and the emulsion was then repeatedly frozen and thawed for 4 times. The liposomal MLV obtained were diluted by 90 ml of PBS, and an aliquot (750 μL) was transferred into an Eppendorf tube containing 10 μL of test compounds dissolved in ethanol and 240 μL of PBS. The content was mixed well and incubated at 37° C. for 15 min. After incubation, the mixture was exposed to UV irradiation (254 nm) for 45 min. The oxidation was detected by measuring conjugated dienes (CD) spectrophotometically at 234 nm against a blank without liposome (test compounds+PBS). Conjugated diene values were calculated as follows using blank-corrected absorbances. CD(mol/g of PC)=Abs./εLC, where ε is the absorptivity constant (29500 M^−1cm^−1), L is the length of the cuvette (1 cm) and C is the final concentration of PC (g/L). […] Discussion

SMILES | Inhibition of LDL-cholesterol oxidation (conjugated diene formation) [1] | Lipophilicity (partition coefficient, P) [2] | % inhibition of UV-induced liposome oxidation (conjugated dienes) [3] | logP [2]
CCC=CCC=CCC=CCC=CCC=CCCCC(=O)Oc1cc(C(=O)OC2Cc3c(O)cc(O)cc3OC2c2cc(OC(=O)CCCC=CCC=CCC=CCC=CCC=CCC)c(O)c(OC(=O)CCCC=CCC=CCC=CCC=CCC=CCC)c2)cc(OC(=O)CCCC=CCC=CCC=CCC=CCC=CCC)c1O (stereo not drawn) [Compound 1b] | 11.80% | 1.10 ± 0.06 ^b | 3.47% | 
O=C(O[C@@H]1Cc2c(O)cc(O)cc2O[C@@H]1c1cc(O)c(O)c(O)c1)c1cc(O)c(O)c(O)c1 [EGCG, Epigallocatechin gallate, reference compound] | 6.53% |  | 9.53% | 0.48 ± 0.01
CCC=CCC=CCC=CCC=CCC=CCC=CCCC(=O)Oc1cc(C(=O)OC2Cc3c(O)cc(O)cc3OC2c2cc(OC(=O)CCC=CCC=CCC=CCC=CCC=CCC=CCC)c(O)c(OC(=O)CCC=CCC=CCC=CCC=CCC=CCC=CCC)c2)cc(OC(=O)CCC=CCC=CCC=CCC=CCC=CCC=CCC)c1O (stereo not drawn) [Compound 1c] | 8.18% | 1.03 ± 0.10 ^b | 16.22% | 
CCCCCCCCCCCCCCCCCC(=O)Oc1cc(C(=O)OC2Cc3c(O)cc(O)cc3OC2c2cc(OC(=O)CCCCCCCCCCCCCCCCC)c(O)c(OC(=O)CCCCCCCCCCCCCCCCC)c2)cc(OC(=O)CCCCCCCCCCCCCCCCC)c1O (stereo not drawn) [Compound 1a, EGCG stearate] | 16.33% |  | 47.59% | 1.42 ± 0.02
